Read-outs that look alike come from different tables or passages of the source.
Target: T1, α5β3γ2 receptor (Homo sapiens, UniProt P18507+P31644)
T1 construct: expressed in transfected cells; host or cells: HEK-293 (stably transfected)
Assay: Cell level screening: whole cell patch clamp, inverse agonist efficacy
Type: cell-based
Conditions: for inverse agonism efficacy of the compound/α5IA inverse agonism efficacy: ratio to α5IA, compound 100 nM

[1] = HEK293, compound 100 nM, GABA 0.05-0.1 μM, HEK293 α5β3γ2, clamped at −60 mV, (Ipost-Ipre)*100/Ipre, read-out: inverse agonism efficacy(%)

T1 sequence (P31644 32-462): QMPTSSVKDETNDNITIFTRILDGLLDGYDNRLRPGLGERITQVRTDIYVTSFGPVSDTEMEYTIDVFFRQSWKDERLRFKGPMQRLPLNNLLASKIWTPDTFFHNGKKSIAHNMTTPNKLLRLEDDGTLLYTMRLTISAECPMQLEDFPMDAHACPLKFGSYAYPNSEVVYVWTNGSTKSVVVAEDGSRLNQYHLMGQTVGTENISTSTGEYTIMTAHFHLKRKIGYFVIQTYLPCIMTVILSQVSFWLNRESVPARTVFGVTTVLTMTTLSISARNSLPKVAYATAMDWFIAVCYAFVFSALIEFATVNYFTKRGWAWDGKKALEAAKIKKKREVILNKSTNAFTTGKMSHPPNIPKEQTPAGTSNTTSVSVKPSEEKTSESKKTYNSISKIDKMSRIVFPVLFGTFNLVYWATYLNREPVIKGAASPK
T1 sequence (P28472 26-473 isoform P28472-2 partner limits assumed): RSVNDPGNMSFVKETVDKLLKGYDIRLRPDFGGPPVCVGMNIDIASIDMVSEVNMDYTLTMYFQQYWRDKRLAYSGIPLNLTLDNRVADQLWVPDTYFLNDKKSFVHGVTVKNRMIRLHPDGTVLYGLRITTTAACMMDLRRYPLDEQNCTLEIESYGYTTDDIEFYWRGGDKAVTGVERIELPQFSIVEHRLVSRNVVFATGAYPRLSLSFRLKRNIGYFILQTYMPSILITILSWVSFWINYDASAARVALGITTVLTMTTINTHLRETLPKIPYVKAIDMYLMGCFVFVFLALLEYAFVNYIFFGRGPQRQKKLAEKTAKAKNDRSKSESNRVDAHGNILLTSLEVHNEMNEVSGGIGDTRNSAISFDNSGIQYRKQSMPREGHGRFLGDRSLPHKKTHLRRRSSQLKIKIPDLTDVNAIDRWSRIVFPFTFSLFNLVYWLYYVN
T1 sequence (P18507 40-475): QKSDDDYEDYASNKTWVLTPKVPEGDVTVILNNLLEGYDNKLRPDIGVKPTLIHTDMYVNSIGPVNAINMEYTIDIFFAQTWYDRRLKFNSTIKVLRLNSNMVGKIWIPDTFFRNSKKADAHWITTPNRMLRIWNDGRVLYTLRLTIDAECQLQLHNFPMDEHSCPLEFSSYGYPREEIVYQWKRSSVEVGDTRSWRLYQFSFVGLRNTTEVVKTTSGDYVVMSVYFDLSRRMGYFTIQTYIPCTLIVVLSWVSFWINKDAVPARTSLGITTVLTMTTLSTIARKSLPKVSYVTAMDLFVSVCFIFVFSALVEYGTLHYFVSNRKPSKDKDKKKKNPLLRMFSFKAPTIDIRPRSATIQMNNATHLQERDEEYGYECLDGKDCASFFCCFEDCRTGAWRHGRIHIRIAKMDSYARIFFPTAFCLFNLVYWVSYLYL

For `CCNC(=O)c1ccc(COc2nn3c(-c4cc(C)on4)nnc3c3ccccc23)nc1` [Compound 07, N-ethyl-6-(((3-(5-methylisoxazol-3-yl)-[1,2,4]triazolo[3,4-a]phthalazin-6-yl)oxy)methyl)nicotinamide], the inhibition at 0.1 µM [1] was 24.8%, the inhibition at 0.01 µM (dose-efficacy, Con. 10 nM, single replicates, read-out: Inverse agonism-Efficacy) was 25.5% and the inhibition at 0.05 µM (dose-efficacy, Con. 50 nM, single replicates, read-out: Inverse agonism-Efficacy) was 40%. For the same compound, the inhibition at 0.1 µM (dose-efficacy, Con. 100 nM, single replicates, read-out: Inverse agonism-Efficacy) was 45.8%, the inhibition at 1 µM (dose-efficacy, Con. 1000 nM, single replicates, read-out: Inverse agonism-Efficacy) was 39.1% and the “inverse agonism efficacy of the compound/α5IA inverse agonism efficacy” value was 1.1.

In the case of `COCCNC(=O)c1ccc(COc2nn3c(-c4cc(C)on4)nnc3c3ccccc23)nc1` [Compound 08, N-(2-methoxyethyl)-6-(((3-(5-methylisoxazol-3-yl)-[1,2,4]triazolo[3,4-a]phthalazin-6-yl)oxy)methyl)nicotinamide], the inhibition at 0.1 µM [1] is reported as 34% and the “inverse agonism efficacy of the compound/α5IA inverse agonism efficacy” value is reported as 1.508.

Source: US11220503B2, “Phthalazine derivatives, preparation method, pharmaceutical composition and usage thereof” (Shanghai SIMR Biotech Co., Ltd., priority 2015, dated 2022)
